Experimental data: PMC6429200, “Synthesis and Broad Antiviral Activity of Novel 2-aryl-isoindolin-1-ones towards Diverse Enterovirus A71 Clinical Isolates” (Molecules, 2019)

What was measured:
Assay type in all cases: cell-based, Enterovirus 71 (EV-A71)
[1] = system: EV-A71 strain ShenZhen98 (SZ98); assay: CPE inhibition assay for anti-EV-A71 in Vero cells, Shenzhen98 strain
How it was run: (§1)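 Vero cells (3 × 10^4/well) were infected for 1 h at 37 °C with 100TCID50 of each EV-A71 strain in serum-free medium. After virus removal, compounds were added at 3-fold dilutions (400~0.18 μM) for 48 h. Viral cytopathic effect was scored, and EC50 was derived by the Reed–Muench method.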

[2] = system: EV-A71; assay: Time-of-addition assay (VP1 Western blot) in Vero cells
Description: In order to explore the inhibitory effect of compound A3 on the EV-A71 viral life cycle, EV-A71 viral protein VP1 was measured via Western blot when Vero cells were treated with compound A3 prior to, during, or after EV-A71 viral incubation (Figure 3). […] It is likely that compound A3 inhibits the EV-A71 replication by acting on the virus entry stage.
The antiviral activity of the tested compound was examined at different time periods prior to, during or after viral infection. Briefly, Vero cells (9 × 10^5 cells/well) were inoculated with EV-A71 (MOI = 1.0) at 37 °C for 1 h. The media with or without treatment were added during the periods of −24~0 h, −1~0 h, 0~10 h, 1~10 h, 2~10 h, 4~10 h, 6~10 h and 8~10 h. After each incubation period, the collected cells were washed with PBS, and then the viral protein was determined by Western blot.
Figure 3 Time-of-addition analysis of Vero cells with compound A3 treatment prior to, during or after EV-A71 infection. (A) Schematic illustration of experiment to determine which stage of EV-A71 viral cycle was inhibited by compound A3 in Vero cells. […] For all experiments, the collected cells were washed with PBS after 10 h post viral infection, and viral VP1 expression was determined via Western blot assay.

[3] = system: EV-A71; assay: Viral titer reduction assay; conditions: cells treated after EV-A71 infection
Description: To further confirm the anti-EV-A71 activity, the expression levels of VP1 RNA and protein were determined. Vero cells were infected with the H strain of EV-A71 for 1 h followed by treatment with A3 of various concentrations for another 24 h. […] Meanwhile, the antiviral efficacy of A3 was also tested using viral titer reduction assays.
Figure 2 Compound A3 inhibited EV-A71 replication in vitro. Vero cells (9 × 10^5 cells/well) were plated into 6-well culture plates and infected with EV-A71 (multiplicity of infection, MOI = 0.1) for 1 h. The infected cells were then treated with the indicated concentrations of A3 for 24 h. Intracellular viral VP1 protein (A) and RNA (B) were determined by Western blot and qRT-PCR assays, respectively. (C) The inhibition of a viral titer by A3. ** p < 0.01 * p < 0.05.

[4] = system: EV-A71 strain Jiangsu52 (JS52); assay: CPE inhibition assay for anti-EV-A71 in Vero cells, Jiangsu52 strain
How it was run: as §1

[5] = Enterovirus A, EVA71, Vero cells, 100TCID50, 48 h

O=C1c2ccccc2CN1c1ccc(Cl)cc1 [Compound A3, 2-(4-chlorophenyl)isoindolin-1-one]
Shenzhen98 SI ([1]; CC50/EC50): 199 | EC50 [1, 5]: 1.29 ± 0.24 µM | EV-A71 VP1 expression in Vero cells ([2]; A3 4 μM at 0, 1 and 2 h after infection (MOI = 1.0), cells collected 10 h post infection, not at the other time periods): significantly decreased | time-of-addition: effect of pretreatment ([2]; A3 added 24 or 1 h prior to infection): did not display any resistance to infection by EV-A71 | time-of-addition: efficacy, addition after infection ([2]; A3 added at 1 or 2 h after EV-A71 infection): significant efficacy | time-of-addition: inhibitory activity, addition during inoculation ([2]; A3 added during the inoculation of the virus): maximum inhibitory activity | viral titers [3]: dose-dependent reduction in viral titers | Jiangsu52 SI ([4]; CC50/EC50): 199 | EC50 [4, 5]: 1.29 ± 0.24 µM
